Laboratory results from patent publication US4223036A, “1-(1,3-Dioxolan-2-ylmethyl)-1H-1,2,4-triazoles” (Janssen Pharmaceutica N.V., priority 1979, dated 1980).

Experiments:
Candida albicans [1] = assay: Activity against vaginal candidosis in rats (lowest oral dose active at the 14th day after infection); type: in vivo, Female Wistar rats; design: lowest effective oral dose (vaginal candidosis in rats): unit not given here; conditions: oral once a day for two days, active at 14th day after infection; for lowest effective oral dose (vaginal candidosis in rats): Table I; for minimal effective dose: Candida albicans, 336 h
Procedure: Experiment A: Activity of Compounds (I) Against Vaginal Candidosis in Rats
Female Wistar rats of ±100 g body weight were used. They were ovariectomized and hysterectomized and after three weeks of recovery, 100 μg of oestradiol undecylate in sesame oil was given subcutaneously once a week for 3 consecutive weeks. The thus induced pseudooestrus was controlled by microscopic examination of vaginal smears. Food and water were left available ad libitum.
The rats were infected intravaginally with 8.10^5 cells of Candida albicans, grown on Sabouraud broth for 48 hours at 37° C. and diluted with saline. The date of infection varied from day +25 to day +32 after surgical intervention, depending on the appearance of signs of induced pseudo-oestrus.
The drugs under investigation were administered orally once a day for two days starting from the day of infection. For each experiment there were placebo treated controls. The results were assessed by taking vaginal smears with sterile swabs on several days after infection. The swabs were put into Sabouraud broth in petri-dishes and incubated for 48 hours a 37° C. If no growth of Candida albicans occured, i.e., when the animals were negative at the end of the experiment, this was due to drug administration because it never happened in placebo treated controls.
The Tables I, II and III below give the lowest oral dose of the drug under investigation which was found active at the 14th day after infection.

Candida albicans [2] = assay: Activity against crop candidosis in turkeys (dose whereby crops of 50% of animals were completely negative); type: in vivo; conditions: medicated feed for 13 consecutive days
Procedure: Experiment B: Activity of Compounds (I) Against Crop Candidosis in Turkeys
Turkeys of 14 days old were infected in the crop with 4.10^6 Candida albicans cells, grown on Sabouraud broth for 48 hours at 37° C. and diluted with saline. The volume of the inoculum was 1 ml. The drug under investigation were premixed in 500 mg of lacton and thereafter admixed in 1000 g of meal without any additives. The concentration of the drug under investigation in the meal was expressed in mg/kg.
The animals were given the medicated feed for 13 consecutive days starting on the day of infection. At the end of the experiment all animals were sacrificed. At autopsy the crops were removed, emptied and grinded in an ultra-turrax mixer in 15 ml of sterile saline. Colony counting was done on Sabouraud agar and the results given in the Tables I, II and III represent the ED50, i.e., the dose of the drug whereby the crops of 50% of the animals were completely negative for Candida albicans.

SMILES | lowest effective oral dose (vaginal candidosis in rats) (Candida albicans [1]) | ED50 (crop candidosis in turkeys) (Candida albicans [2]; Table I) | also measured
COC(=O)Nc1ccc(OC[C@H]2CO[C@](Cn3ccnc3)(c3ccc(Cl)cc3Cl)O2)cc1 (relative stereo) [NHCOOCH3, cis-methyl {4-[2-(2,4-dichlorophenyl)-2-(1H-imidazol-1-ylmethyl-1,3-dioxolan-4-ylmethoxy]phenyl}-carbamate nitrate] | 5 | 31 mg/kg of feed | –
Clc1ccc([C@@]2(Cn3ccnc3)OC[C@H](COc3ccc(N4CCOCC4)cc3)O2)c(Cl)c1 (relative stereo) | 2.5 | 16 mg/kg of feed | –
CNC(=S)N1CCN(c2ccc(OC[C@H]3CO[C@](Cn4ccnc4)(c4ccc(Cl)cc4Cl)O3)cc2)CC1 (relative stereo) | 2.5 | 125 mg/kg of feed | –
Nc1ccc(OC[C@H]2CO[C@](Cn3ccnc3)(c3ccc(Cl)cc3Cl)O2)cc1 (relative stereo) [NH2, cis-4-[2-(2,4-dichlorophenyl)-2-(1H-imidazol-1-ylmethyl)-1,3-dioxolan-4-ylmethoxy]benzenamine] | 5 | 125 mg/kg of feed | –
CCC(C)N1CCN(c2ccc(OC[C@H]3CO[C@](Cn4cncn4)(c4ccc(Cl)cc4Cl)O3)cc2)CC1 (relative stereo) [CH(CH3)CH2CH3] | – | – | minimal effective dose (Candida albicans [1]; Table II): 2.5 mg/kg; ED50 (crop candidosis in turkeys) (Candida albicans [2]; Table II): 63 mg/kg of feed
CCCN1CCN(c2ccc(OC[C@H]3CO[C@](Cn4ccnc4)(c4ccc(Cl)cc4Cl)O3)cc2)CC1 (relative stereo) | 2.5 | 16 mg/kg of feed | –
CCOC(=O)N1CCN(c2ccc(OC[C@H]3CO[C@](Cn4ccnc4)(c4ccc(Cl)cc4Cl)O3)cc2)CC1 (relative stereo) [drawing 31] | 2.5 | 16 mg/kg of feed | –
CCN1CCN(c2ccc(OC[C@H]3CO[C@](Cn4ccnc4)(c4ccc(Cl)cc4Cl)O3)cc2)CC1 (relative stereo) [drawing 37] | 1.25 | 31 mg/kg of feed | –
CCOC(=O)Nc1ccc(OC[C@H]2CO[C@](Cn3ccnc3)(c3ccc(Cl)cc3Cl)O2)cc1 (relative stereo) [NHCOOC2 H5, cis-ethyl {4-[2-(2,4-dichlorophenyl)-2-(1H-imidazol-1-ylmethyl)-1,3-dioxolan-4-ylmethoxy]phenyl}carbamate] | 5 | 16 mg/kg of feed | –
Clc1ccc([C@@]2(Cn3ccnc3)OC[C@H](COc3ccc(N4CCN(Cc5ccccc5)CC4)cc3)O2)c(Cl)c1 (relative stereo) [drawing 50] | 1.25 | 16 mg/kg of feed | –
CNC(=O)N1CCN(c2ccc(OC[C@H]3CO[C@](Cn4ccnc4)(c4ccc(Cl)cc4Cl)O3)cc2)CC1 (relative stereo) | 2.5 | 16 mg/kg of feed | –
O=C(Nc1ccc(OC[C@H]2CO[C@](Cn3ccnc3)(c3ccc(Cl)cc3Cl)O2)cc1)c1ccc(Br)cc1 (relative stereo) | 10 | 31 mg/kg of feed | –
CS(=O)(=O)N1CCN(c2ccc(OC[C@H]3CO[C@](Cn4ccnc4)(c4ccc(Cl)cc4Cl)O3)cc2)CC1 (relative stereo) | 1.25 | 31 mg/kg of feed | –
CC(=O)N1CCN(c2ccc(OC[C@H]3CO[C@](Cn4ccnc4)(c4ccc(Cl)cc4Cl)O3)cc2)CC1 (relative stereo) | 2.5 | 8 mg/kg of feed | –
CCNc1ccc(OC[C@H]2CO[C@](Cn3ccnc3)(c3ccc(Cl)cc3Cl)O2)cc1 (relative stereo) [NHCH2CH3, cis-4-[2-(2,4-dichlorophenyl)-2-(1H-imidazol-1-ylmethyl)-1,3-dioxolan-4-ylmethoxy]-N-ethylbenzenamine] | 2.5 | 31 mg/kg of feed | –
S=C=Nc1ccc(OC[C@H]2CO[C@](Cn3ccnc3)(c3ccc(Cl)cc3Cl)O2)cc1 (relative stereo) [NCS, cis-1-[2-(2,4-dichlorophenyl)-4-(4-isothiocyanatophenoxymethyl)-1,3-dioxolan-2-ylmethyl]-1H-imidazole] | 5 | 125 mg/kg of feed | –
O=C(Nc1ccc(OC[C@H]2CO[C@](Cn3ccnc3)(c3ccc(Cl)cc3Cl)O2)cc1)c1ccccc1 (relative stereo) | 5 | 63 mg/kg of feed | –
NC(=O)N1CCN(c2ccc(OC[C@H]3CO[C@](Cn4ccnc4)(c4ccc(Cl)cc4Cl)O3)cc2)CC1 (relative stereo) | 5 | 125 mg/kg of feed | –
Nc1ccc(OC[C@H]2CO[C@](Cn3ccnc3)(c3ccc(Cl)cc3Cl)O2)cc1[N+](=O)[O-] (relative stereo) [Example 4-NH2, cis-4-[2-(2,4-dichlorophenyl)-2-(1H-imidazol-1-ylmethyl)-1,3-dioxolan-4-ylmethoxy]-2-nitrobenzenamine] | – | – | minimal effective dose (Candida albicans [1]; Table III): 5 mg/kg; ED50 (crop candidosis in turkeys) (Candida albicans [2]; Table III): 31 mg/kg of feed
CNC(=O)Nc1ccc(OC[C@H]2CO[C@](Cn3ccnc3)(c3ccc(Cl)cc3Cl)O2)cc1 (relative stereo) [NHCONHCH3, cis-N-{4-[2-(2,4-dichlorophenyl)-2-(1H-imidazol-1-ylmethyl)-1,3-dioxolan-4-ylmethoxy]phenyl}-N'-methylurea] | 10 | 125 mg/kg of feed | –
O=C(Nc1ccc(OC[C@H]2CO[C@](Cn3ccnc3)(c3ccc(Cl)cc3Cl)O2)cc1)c1ccc(F)cc1 (relative stereo) | 5 | 16 mg/kg of feed | –
CCC(=O)Nc1ccc(OC[C@H]2CO[C@](Cn3ccnc3)(c3ccc(Cl)cc3Cl)O2)cc1 (relative stereo) [NHCOC2 H5, cis-N-{4-[2-(2,4-dichlorophenyl)-2-(1H-imidazol-1-ylmethyl)-1,3-dioxolan-4-ylmethoxy]phenyl}propanaide ethanedioate. 2-propanolate] | 10 | 31 mg/kg of feed | –
CCNC(=O)Nc1ccc(OC[C@H]2CO[C@](Cn3ccnc3)(c3ccc(Cl)cc3Cl)O2)cc1 (relative stereo) [NHCONHC2 H5, cis-N-{4-[2-(2,4-dichlorophenyl)-2-(1H-imidazol-1-ylmethyl)-1,3-dioxolan-4-ylmethoxy]phenyl}-N'-ethylurea] | 10 | 125 mg/kg of feed | –
CCNC(=O)N1CCN(c2ccc(OC[C@H]3CO[C@](Cn4ccnc4)(c4ccc(Cl)cc4Cl)O3)cc2)CC1 (relative stereo) | 10 | 125 mg/kg of feed | –
O=C(Nc1ccc(OC[C@H]2CO[C@](Cn3ccnc3)(c3ccc(Cl)cc3Cl)O2)cc1)C(Cl)Cl (relative stereo) [NHCOCH(Cl)2, cis-2,2-dichloro-N-{4-[2-(2,4-dichlorophenyl)-2-(1H-imidazol-1-ylmethyl)-1,3-dioxolan-4-ylmethoxy]phenyl}acetamide] | 10 | 125 mg/kg of feed | –
Clc1ccc([C@@]2(Cn3ccnc3)OC[C@H](COc3ccc(N4CCN(Cc5ccccc5)CC4)cc3)O2)c(Cl)c1 (relative stereo) [drawing 46] | 2.5 | 31 mg/kg of feed | –
CN(C)c1ccc(OC[C@H]2CO[C@](Cn3ccnc3)(c3ccc(Cl)cc3Cl)O2)cc1 (relative stereo) [cis-4-[2-(2,4-dichlorophenyl)-2-(1H-imidazol-1-ylmethyl)-1,3-dioxolan-4-ylmethoxy]-N,N'-dimethylbenzenamine diethanedioate.hydrate] | 10 | 31 mg/kg of feed | –
COC(=O)N1CCN(c2ccc(OC[C@H]3CO[C@](Cn4ccnc4)(c4ccc(Cl)cc4Cl)O3)cc2)CC1 (relative stereo) | 2.5 | 8 mg/kg of feed | –
CC(C)CN1CCN(c2ccc(OC[C@H]3CO[C@](Cn4cncn4)(c4ccc(Cl)cc4Cl)O3)cc2)CC1 (relative stereo) [CH2CH(CH3)2] | – | – | minimal effective dose (Candida albicans [1]; Table II): 2.5 mg/kg; ED50 (crop candidosis in turkeys) (Candida albicans [2]; Table II): 31 mg/kg of feed
